From PubChem BioAssay AID206 (DTP/NCI, 2004) come the findings set out here.

The assay deals with nude mice, HT29 intrarenal xenograft, tumor weight T/C. Put plainly: NCI In Vivo Anticancer Drug Screen. Data for tumor model HT29;CX-1 Human Adenocarcinoma (MER+) (intrarenal inoculation) in NU/NU Swiss (nude) mice. As to conditions: endpoint: mean tumor weight change, higher = larger tumour. The essentials:
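T/C = treated-group value ÷ vehicle-group value, using tumor size or survival.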

Setting [1] is: dose: 100.0 mg/kg/injection, schedule: Q01DX010 (sc), vehicle: saline with Tween-80.
Where [2] appears, read: dose: 150.0 mg/kg/injection, schedule: Q04DX004 (sc), vehicle: saline with Tween-80.
Where [3] appears, read: dose: 300.0 mg/kg/injection, schedule: Q04DX004 (sc), vehicle: saline with Tween-80.
The mark [4] stands for this setting: dose: 1200.0 mg/kg/injection, schedule: Q04DX004 (sc), vehicle: saline with Tween-80.
[5] abbreviates: dose: 25.0 mg/kg/injection, schedule: Q04DX004 (sc), vehicle: Klucel (hydroxypropylcellulose) (HPC).
[6] abbreviates: dose: 300.0 mg/kg/injection, schedule: Q04DX004 (sc), vehicle: Klucel (hydroxypropylcellulose) (HPC).
Setting [7] is: dose: 600.0 mg/kg/injection, schedule: Q04DX004 (sc), vehicle: Klucel (hydroxypropylcellulose) (HPC).
[8] abbreviates: dose: 75.0 mg/kg/injection, schedule: Q04DX004 (sc), vehicle: saline with Tween-80.
Where [9] appears, read: dose: 600.0 mg/kg/injection, schedule: Q04DX004 (sc), vehicle: saline with Tween-80.
[10] abbreviates: dose: 400.0 mg/kg/injection, schedule: Q04DX004 (sc), vehicle: saline with Tween-80.
Setting [11] is: dose: 800.0 mg/kg/injection, schedule: Q04DX004 (sc), vehicle: saline with Tween-80.
Where [12] appears, read: dose: 1600.0 mg/kg/injection, schedule: Q04DX004 (sc), vehicle: saline with Tween-80.

Where “and” joins values, the source holds several entries; their conditions need not be identical. Identical values can stand only once. Records with an inconclusive call do not appear.

Turning to `C[C@H](N)C(=O)N[C@@H]1[C@H]2C(=C(O)C[C@@H](O)[C@@H]2O)C(=O)O[C@@H]1C`, the T/C is, setting by setting: (dose: 300.0 mg/kg/injection, schedule: Q04DX004 (sc), vehicle: saline) 107 % of control; (dose: 600.0 mg/kg/injection, schedule: Q04DX004 (sc), vehicle: saline) 81 % of control; (dose: 1200.0 mg/kg/injection, schedule: Q04DX004 (sc), vehicle: saline) 68 % of control; (dose: 2400.0 mg/kg/injection, schedule: Q04DX004 (sc), vehicle: saline) 92 % of control.

Turning to `C=C(C)C(=O)OC1C/C(CO)=C\C(O)C/C(C)=C/C2OC(=O)C(=C)C21` (configuration not stated), the T/C was 100 % of control (dose: 20.0 mg/kg/injection, schedule: Q04DX004 (sc), vehicle: saline + alcohol); 83 % of control (dose: 40.0 mg/kg/injection, schedule: Q04DX004 (sc), vehicle: saline + alcohol); 70 % of control (dose: 80.0 mg/kg/injection, schedule: Q04DX004 (sc), vehicle: saline + alcohol).

Take `CCOC(=O)CNC(=O)CCCCSc1ncnc2nc[nH]c12`: the T/C is 162 % of control (dose: 225.0 mg/kg/injection, schedule: Q04DX004 (sc), vehicle: saline with Tween-80) and 103 % of control (dose: 450.0 mg/kg/injection, schedule: Q04DX004 (sc), vehicle: saline with Tween-80).

Turning to `O=C1c2ccccc2C(=O)c2c3c(cc(NCCNCCO)c21)N(CCO)CCN3`, the T/C is 168 % of control (dose: 100.0 mg/kg/injection, schedule: Q04DX004 (sc), vehicle: DMSO); 112 % of control (dose: 200.0 mg/kg/injection, schedule: Q04DX004 (sc), vehicle: DMSO); 59 % of control (dose: 400.0 mg/kg/injection, schedule: Q04DX004 (sc), vehicle: DMSO); 104 % of control (dose: 800.0 mg/kg/injection, schedule: Q04DX004 (sc), vehicle: DMSO).

Take `C/C(=N/NC(N)=S)c1ccc2ccccc2c1`: the T/C by setting is: (dose: 12.5 mg/kg/injection, schedule: Q01DX010 (sc), vehicle: saline with Tween-80) 177 % of control; (dose: 25.0 mg/kg/injection, schedule: Q01DX010 (sc), vehicle: saline with Tween-80) 70 % of control; (dose: 50.0 mg/kg/injection, schedule: Q01DX010 (sc), vehicle: saline with Tween-80) 57 % of control; under setting [1], 89 % of control.

Consider `C=C(OP(=O)(OC)OC)Sc1ccccc1C`, for which the T/C by setting is: (dose: 100.0 micrograms/kg/injection, schedule: Q04DX004 (sc), vehicle: Klucel (hydroxypropylcellulose) (HPC)) 84 % of control; (dose: 400.0 micrograms/kg/injection, schedule: Q04DX004 (sc), vehicle: Klucel (hydroxypropylcellulose) (HPC)) 95 % of control; (dose: 800.0 micrograms/kg/injection, schedule: Q04DX004 (sc), vehicle: Klucel (hydroxypropylcellulose) (HPC)) 118 % of control.

As for `CCC1=C2C(=O)c3ccccc3C2=C(C)S(=O)(=O)O1`, the T/C reads like this: under setting [2], 70 % of control; under setting [3], 50 % of control; under setting [4], 89 % of control.

In the case of `O=NN(CCF)C(=O)NC1CCCCC1`, the T/C reads like this: (dose: 6.25 mg/kg/injection, schedule: Q04DX004 (sc), vehicle: Klucel (hydroxypropylcellulose) (HPC)) 55 % of control; (dose: 12.5 mg/kg/injection, schedule: Q04DX004 (sc), vehicle: Klucel (hydroxypropylcellulose) (HPC)) 30 % of control; under setting [5], 62 % of control.

With `BrCC[Se]c1ccccc1`, for the setting “dose: 200.0 mg/kg/injection, schedule: Q04DX004 (sc), vehicle: saline with Tween-80”, the T/C is 16 % of control.

For `BrC1CC(Br)c2c1c1c(c3c2C(Br)CC3Br)C(Br)CC1Br` (configuration not stated), the T/C runs as follows: (dose: 225.0 mg/kg/injection, schedule: Q04DX004 (sc), vehicle: water) 76 % of control; (dose: 300.0 mg/kg/injection, schedule: Q04DX004 (sc), vehicle: water) 84 % of control; (dose: 450.0 mg/kg/injection, schedule: Q04DX004 (sc), vehicle: water) 157 % of control; (dose: 900.0 mg/kg/injection, schedule: Q04DX004 (sc), vehicle: water) 158 % of control; (dose: 1200.0 mg/kg/injection, schedule: Q04DX004 (sc), vehicle: water) 116 % of control; (dose: 1800.0 mg/kg/injection, schedule: Q04DX004 (sc), vehicle: water) 22 % of control.

Turning to `CC(CN1CC(=O)NC(=O)C1)N1CC(=O)NC(=O)C1` (configuration not stated), the T/C (dose: 150.0 mg/kg/injection, schedule: Q04DX004 (sc), vehicle: Klucel (hydroxypropylcellulose) (HPC)) was 85 % of control; the T/C under setting [6] was 40 % of control; the T/C under setting [7] is 46 % of control.

Take `C=CS(C=C)=NS(=O)(=O)c1ccc(C)cc1`: the T/C reads like this: (dose: 18.75 mg/kg/injection, schedule: Q04DX004 (sc), vehicle: Klucel (hydroxypropylcellulose) (HPC)) 91 % of control; (dose: 37.5 mg/kg/injection, schedule: Q04DX004 (sc), vehicle: Klucel (hydroxypropylcellulose) (HPC)) 60 % of control.

In the case of `CN(C)C1C(=O)C(C(=O)NP(=O)(NCCCO)N(CCCl)CCCl)=C(O)C2(O)C(=O)C3=C(O)c4c(O)cccc4C(C)(O)C3CC12` (configuration not stated), the T/C reads like this: under setting [8], 89 % of control; under setting [3], 7 % of control and 32 % of control; under setting [9], -99 % of control.

With `OC1(CSc2ccccc2)CCCCC1`, under “dose: 100.0 mg/kg/injection, schedule: Q04DX004 (sc), vehicle: saline with Tween-80”, the T/C is 113 % of control.

As for `CCCCCCOC(CN(C)C)C(Cl)(Cl)Cl` (configuration not stated), the T/C is, setting by setting: under setting [10], 91 % of control; under setting [11], 57 % of control; under setting [12], 81 % of control; (dose: 2400.0 mg/kg/injection, schedule: Q04DX004 (sc), vehicle: saline with Tween-80) 67 % of control.

As to `O=C(C/C(=N\C(=S)Nc1cc(C(F)(F)F)ccc1Cl)NO)N1CCCC1`, the T/C by setting is: under setting [8], 51 % of control; under setting [2], 49 % of control; under setting [3], 80 % of control; under setting [9], 70 % of control.

Turning to `Cc1ncc([N+](=O)[O-])n1CCSC(N)=O`, the T/C runs as follows: under setting [10], 112 % of control; under setting [11], 76 % of control; under setting [12], 111 % of control.

As for `CC(C)(C)C1CCCCC1`, the T/C under setting [6] is 94 % of control; the T/C under setting [7] was 97 % of control; the T/C (dose: 1200.0 mg/kg/injection, schedule: Q04DX004 (sc), vehicle: Klucel (hydroxypropylcellulose) (HPC)) was 56 % of control; the T/C (dose: 2400.0 mg/kg/injection, schedule: Q04DX004 (sc), vehicle: Klucel (hydroxypropylcellulose) (HPC)) was 55 % of control.

In the case of `N/C(=N\O)c1cn(C2OC(CO)C(O)C2O)c2ncnc(N)c12` (configuration not stated), under “dose: 5.0 mg/kg/injection, schedule: Q04DX004 (sc), vehicle: Klucel (hydroxypropylcellulose) (HPC)”, the T/C was 67 % of control.

In the case of `CC1CN=C(c2ccc(NC(=O)c3ccc(C(=O)Nc4ccc(C5=NCC(C)N5)cc4)cc3)cc2)N1` (configuration not stated), the T/C is 65 % of control (dose: 25.0 mg/kg/injection, schedule: Q01DX010 (sc), vehicle: Klucel (hydroxypropylcellulose) (HPC)); 34 % of control (dose: 50.0 mg/kg/injection, schedule: Q01DX010 (sc), vehicle: Klucel (hydroxypropylcellulose) (HPC)); 37 % of control (dose: 100.0 mg/kg/injection, schedule: Q01DX010 (sc), vehicle: Klucel (hydroxypropylcellulose) (HPC)); 44 % of control (dose: 200.0 mg/kg/injection, schedule: Q01DX010 (sc), vehicle: Klucel (hydroxypropylcellulose) (HPC)).

Consider `COC(=Nc1ccccc1)SSC(C)C`, for which the T/C under setting [2] was 104 % of control, the T/C under setting [3] is 118 % of control, the T/C under setting [9] is 117 % of control and the T/C under setting [4] was 117 % of control.

As to `COc1c(CNC(=O)CCl)cc2[nH]c(C)cc2c1CNC(=O)CCl`, the T/C under setting [6] was 192 % of control and the T/C under setting [7] is 124 % of control.

Turning to `O=[Te]=O`, the T/C was 170 % of control under setting [5] and 74 % of control (dose: 50.0 mg/kg/injection, schedule: Q04DX004 (sc), vehicle: Klucel (hydroxypropylcellulose) (HPC)).

For `CCCC(=O)Oc1ccc(/C=N/NC(N)=S)nc1`, the T/C reads like this: under setting [1], 182 % of control; (dose: 200.0 mg/kg/injection, schedule: Q01DX010 (sc), vehicle: saline with Tween-80) 168 % of control.
